According to article PMC6372667 (Experimental & Molecular Medicine, 2019):
Read-outs that look alike come from different tables or passages of the source.

Columns and labels:
[1] = molecular target: T1, BACE1 (human recombinant β-secretase) (Homo sapiens, UniProt P56817); assay: In vitro BACE1 FRET enzyme assay; type: biochemical
Source text: (§1) BACE1 (human recombinant β-secretase) ([…]) and the BACE1 FRET (fluorescence resonance energy transfer) assay kit Red were purchased from ThermoFisher Scientific (P2985; Waltham, MA, USA). […] For the cell culture experiment, Dulbecco’s modified Eagle’s medium (DMEM), Opti-MEM, fetal bovine serum (FBS), and penicillin/streptomycin were obtained from Capricorn Scientific (Ebsdorfergrund, Germany). β-secretase inhibitor III (β-SI) was purchased from Calbiochem (Darmstadt, Germany). The protease inhibitor mixture (a mixture of AEBSF, pepstatin A, E-64, bestain, leupeptin, and aprotinin) was purchased from Sigma-Aldrich (St. Louis, MO, USA). Enzyme-linked immunosorbent assay (ELISA) kits for Aβ40 and Aβ42 were obtained from IBL (Kunma, Japan). All chemicals and solvents used were reagent grade, purchased from commercial sources, and used as received.
The BACE1 FRET assay was carried out according to the manufacturer’s instructions with slight modifications as previously described. The assay was performed in a […] black plate using a multi-pipette.

Electric eel AChE [2] = molecular target: T2, Electric eel AChE (Electrophorus electricus, UniProt O42275); assay: In vitro cholinesterase enzyme assay (Ellman), AChE; type: biochemical
T2 construct: purchased Sigma-Aldrich Co
Source text: as §1
(§2) The inhibitory activities of pterosin derivatives against cholinesterases were measured using the method developed by Ellman et al.[32]. The reaction mixture contained 140 μL of sodium phosphate buffer (pH 8.0), 20 μL of test sample solution (final concentration of the compound 100 μM), and 20 μL of AChE or BChE solution, mixed and incubated for 15 min at room temperature. […] The reactions were initiated following the addition of 10 μL of DTNB and 10 μL of acetyl thiocholine iodide for the AChE assay or butyryl thiocholine chloride for the BChE assay in 96-well microplates, which were incubated for 15 min.

horse serum BChE [3] = molecular target: T3, horse serum BChE (Equus caballus, UniProt P81908); assay: In vitro cholinesterase enzyme assay (Ellman), BChE; type: biochemical
T3 construct: horse serum BChE (EC 3.1.1.8); purchased Sigma-Aldrich Co; host or cells: horse serum
Source text: as §1, §2

[4] = molecular target: T1, BACE1 (human recombinant β-secretase); assay: Kinetic analysis of BACE1 inhibition (Dixon and Lineweaver−Burk plots); type: biochemical
Description: (§3) The Ki was determined by interpretation of the Dixon plot, with the value of the x-axis intercept taken as −Ki.
Dixon plots for BACE1 inhibition by pterosin derivatives.
Dixon plots for BACE1 inhibition by pteroside derivatives.

Electric eel AChE [5] = molecular target: T2, Electric eel AChE; assay: Kinetic analysis of AChE inhibition (Dixon and Lineweaver−Burk plots); type: biochemical
Description: as §3
Dixon plots for AChE inhibition by pterosin derivatives. (2S,3R)-Pterosin C (A), (2R,3R)-pterosin C (B), and (2R)-pterosin B (C) were tested in the presence of substrate concentrations of 0.1 mM (●), 0.3 mM (○), and 0.6 mM (▼). Lineweaver-Burk plots for AChE inhibition were generated with inhibitor concentrations of 0 µM (Δ), 4 µM (▼), 20 µM (○), and 100 µM (●) for (2S,3R)-pterosin C (D) and (2R,3R)-pterosin C (E); and 0 µM (Δ), 2 µM (▼), 10 µM (○), and 50 µM (●) for (2R)-pterosin B (F).
Dixon plots for AChE inhibition by pteroside derivatives. (2R)-pteroside B (A), (2R,3R)-pteroside C (B), and (3S)-pteroside D (C) were tested in the presence of substrate concentrations of 0.1 mM (●), 0.3 mM (○), and 0.6 mM (▼). Lineweaver-Burk plots for AChE inhibition were generated with inhibitor concentrations of 0 µM (Δ), 0.8 µM (▼), 4 µM (○), and 20 µM (●) for (2R)-pteroside B (D), (2R,3R)-pteroside C (E), and (3S)-pteroside D (F).

horse serum BChE [6] = molecular target: T3, horse serum BChE; assay: Kinetic analysis of BChE inhibition (Dixon and Lineweaver−Burk plots); type: biochemical
Description: as §3
Dixon plots for BChE inhibition by pterosin derivatives. (2S,3R)-Pterosin C (A), (2R,3R)-pterosin C (B), and (2R)-pterosin B (C) were tested in the presence of substrate concentrations of 0.2 mM (●), 0.4 mM (○), and 0.8 mM (▼).
Dixon plots for BChE inhibition by pteroside derivatives. (2R)-pteroside B (A), (2R,3R)-pteroside C (B), and (3S)-pteroside D (C) were tested in the presence of substrate concentrations of 0.2 mM (●), 0.4 mM (○), and 0.8 mM (▼). Lineweaver-Burk plots for BChE inhibition were generated with inhibitor concentrations of 0 µM (Δ), 4 µM (▼), 20 µM (○), and 100 µM (●) for (2R)-pteroside B (D); 0 µM (Δ), 0.8 µM (▼), 4 µM (○), and 20 µM (●) for (2R,3R)-pteroside C (E) and (3S)-pteroside D (F).

in vitro = in vitro ADME; conditions: for Papp at 4 h, 25 µg/mL: pig, PAMPA, read-out: PAMPA-BBB permeability Pe
Description: PAMPA (parallel artificial membrane permeation assay) was used as a high-throughput assay to predict BBB permeation. Porcine polar brain lipid (PBL) was used as an artificial membrane to predict BBB permeation. Initially, the test compound was dissolved in DMSO at 5 mg/mL. This compound stock solution (10 µL) was diluted 200-fold in a universal buffer at pH 7.4 and mixed with a multi 8-channel pipette to obtain the secondary stock solution (final concentration 25 µg/mL). The secondary stock solution (200 µL) was placed in the donor wells. The filter membrane was coated with PBL in dodecane (4 mL volume of 20 mg/mL PBL in dodecane), and 5 µL of BBB-1 lipid solution was spread on PBL by pipette. The acceptor well was filled with […] of Acceptor Sink Buffer. The acceptor filter plate was cautiously positioned on the donor plate to assemble a “sandwich” (comprising an aqueous acceptor, artificial lipid membrane and aqueous donor with test compound on the top, middle and bottom, respectively). The test compound diffuses from the donor well to the acceptor well through the lipid membrane. After 4 h of incubation at pH 7.4 and 25 °C, the concentration of the compound in the acceptor, donor, reference and blank wells was estimated with a UV plate reader, Epoch Microplate Spectrophotometer (BioTek Instruments, Inc., Winooski, VT, USA). […] Samples were analyzed in quadruplets, and the average of the four runs was reported. To monitor the consistency of the analysis set, quality control standards were run with each sample set.
PAMPA-BBB, an in vitro artificial membrane permeability assay for the BBB, is one of the most reliable physicochemical screening tools in the early stage discovery of CNS-targeted drugs. The PAMPA-BBB system models the transcellular passive diffusion of chemicals across the BBB and measures strictly passive transport mechanisms via an artificial lipid membrane on effective permeability (Pe, cm/s).

[7] = tested on: SH-SY5Y human neuroblastoma; assay: MTT cytotoxicity assay, SH-SY5Y; type: cell-based; conditions: 24 h
Description: (§4) Cytotoxicity was assessed using the MTT assay. Briefly, the cells were seeded into a 96-well plate at a density of 1×10^5 cells per well in 100 µL of corresponding media and incubated at 37 °C in an incubator under 5% CO2 tension for 24 h. The culture media were then replaced with 100 µL of fresh serum-free media in the presence of varied concentrations of pterosin derivatives, and cells were incubated for an additional 24 h. The control was treated with an equal amount of DMSO present in the assay for a 5 mM concentration. Then, 100 µL of MTT solution (0.5 mg/mL in Phosphate Buffered Saline (PBS)) was added to each culture. To measure the proportion of surviving cells, the media were replaced with 100 µL of DMSO 2 h after the administration of MTT solution. The absorbance was measured at 570 nm using a spectrophotometric plate reader (Molecular Devices, Sunnyvale, CA, USA).

C6 rat glial cells = assay: MTT cytotoxicity assay, C6; type: cell-based; conditions: 24 h
Description: as §4

[8] = tested on: NIH3T3 mouse embryo fibroblasts; assay: MTT cytotoxicity assay, NIH3T3; type: cell-based; conditions: 24 h
Description: as §4

B16F10 mouse melanoma = assay: MTT cytotoxicity assay, B16F10; type: cell-based; conditions: 24 h
Description: as §4

[9] = Dixon and Lineweaver−Burk plots
[10] = mean ± S.D. of three experiments
[11] = mean ± S.D. of three experiments, read-out: IC50 AChE
[12] = mean ± S.D. of three experiments, read-out: IC50 BChE
[13] = 4 h, pH 7.4, 25 °C, mean ± SD of quadruple experiments

T3 sequence (P81908 whole entry): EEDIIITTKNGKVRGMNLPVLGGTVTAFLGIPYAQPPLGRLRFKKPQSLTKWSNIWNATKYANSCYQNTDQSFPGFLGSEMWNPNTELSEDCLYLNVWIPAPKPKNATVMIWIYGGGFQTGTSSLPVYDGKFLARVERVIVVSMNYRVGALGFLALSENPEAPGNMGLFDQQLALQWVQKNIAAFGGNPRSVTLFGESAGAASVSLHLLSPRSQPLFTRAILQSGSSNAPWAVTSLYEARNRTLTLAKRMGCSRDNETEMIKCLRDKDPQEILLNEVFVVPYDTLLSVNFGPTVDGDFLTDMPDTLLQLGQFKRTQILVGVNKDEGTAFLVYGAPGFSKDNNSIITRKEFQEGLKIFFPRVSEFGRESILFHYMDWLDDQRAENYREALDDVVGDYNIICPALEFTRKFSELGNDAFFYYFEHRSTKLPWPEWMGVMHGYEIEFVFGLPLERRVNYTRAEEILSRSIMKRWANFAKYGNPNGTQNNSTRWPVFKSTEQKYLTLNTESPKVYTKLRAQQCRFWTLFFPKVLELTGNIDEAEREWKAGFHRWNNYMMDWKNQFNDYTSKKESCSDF
T1 sequence (P56817 46-501): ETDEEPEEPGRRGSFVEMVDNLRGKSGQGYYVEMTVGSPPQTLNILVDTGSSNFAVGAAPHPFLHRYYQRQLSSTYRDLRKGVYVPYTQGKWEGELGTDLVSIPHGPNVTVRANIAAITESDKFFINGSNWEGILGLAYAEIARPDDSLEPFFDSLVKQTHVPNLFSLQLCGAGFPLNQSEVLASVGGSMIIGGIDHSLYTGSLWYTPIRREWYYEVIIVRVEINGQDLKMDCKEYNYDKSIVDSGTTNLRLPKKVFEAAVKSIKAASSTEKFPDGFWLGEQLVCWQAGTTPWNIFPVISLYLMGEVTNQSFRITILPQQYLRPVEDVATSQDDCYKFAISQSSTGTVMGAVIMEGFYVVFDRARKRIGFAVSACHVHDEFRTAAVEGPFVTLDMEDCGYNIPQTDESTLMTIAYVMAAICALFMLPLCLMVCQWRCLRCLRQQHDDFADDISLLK
T2 sequence (O42275 24-633): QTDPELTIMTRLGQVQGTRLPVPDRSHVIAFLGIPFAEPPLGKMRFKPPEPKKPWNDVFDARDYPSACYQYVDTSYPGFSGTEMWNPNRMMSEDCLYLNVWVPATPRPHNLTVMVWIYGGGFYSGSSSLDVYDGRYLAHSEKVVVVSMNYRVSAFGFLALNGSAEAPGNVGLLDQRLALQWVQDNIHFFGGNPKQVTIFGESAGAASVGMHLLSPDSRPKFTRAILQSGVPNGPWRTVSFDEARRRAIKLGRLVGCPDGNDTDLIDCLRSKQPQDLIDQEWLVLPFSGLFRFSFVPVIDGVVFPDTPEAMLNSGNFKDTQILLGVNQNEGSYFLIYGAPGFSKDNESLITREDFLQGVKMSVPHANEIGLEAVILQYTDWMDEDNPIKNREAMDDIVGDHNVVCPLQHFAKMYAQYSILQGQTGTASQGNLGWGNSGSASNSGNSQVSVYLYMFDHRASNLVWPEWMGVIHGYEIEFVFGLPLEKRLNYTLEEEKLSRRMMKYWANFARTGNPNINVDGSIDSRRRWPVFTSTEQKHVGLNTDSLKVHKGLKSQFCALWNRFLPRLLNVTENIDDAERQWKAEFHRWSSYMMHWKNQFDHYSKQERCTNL

SMILES | LD50 Based on MTT Assay, SY-SY5Y [7] | LD50 Based on MTT Assay, C6 (C6 rat glial cells) | LD50 Based on MTT Assay, NIH3T3 [8] | LD50 Based on MTT Assay, B16F10 (B16F10 mouse melanoma) | IC50 [1, 10] [µM] | IC50 (Electric eel AChE [2]; [11]) [µM] | IC50 (horse serum BChE [3]; [12]) [µM] | Papp at 4 h, 25 µg/mL (in vitro; [13]) [×10⁻⁶ cm/s] | IC50 BACE1 [1, 10] | further results
Cc1cc2c(c(C)c1CCO)C(=O)[C@H](C)[C@H]2O [(2R,3R)-Pterosin C, (2R,3R)-pterosin C] | 719 ± 25 µM | 694 ± 9.7 µM | >5,000 µM | >5,000 µM |  |  |  |  |  | IC50 [1]: 26.2 ± 6.3 µM; IC50 (Electric eel AChE [2]): 23.2 ± 4.6 µM; IC50 (horse serum BChE [3]): 20.3 ± 0.88 µM; Ki [4]: 27.6 µM; Inhibition type BACE1 [4, 9]: Mixed-type; Ki (Electric eel AChE [5]): 29.6 µM; Inhibition type AChE (Electric eel AChE [5]; [9]): Noncompetitive; Ki (horse serum BChE [6]): 4.77 µM; Inhibition type BChE (horse serum BChE [6]; [9]): Mixed-type; log Pe (in vitro): -5.70; Papp at 4 h, 25 µg/mL (in vitro; pH 7.4): 1.98 ± 0.17 ×10⁻⁶ cm/s
Cc1cc2c(c(C)c1CCO)C(=O)C(C)(COC1OC(CO)C(O)C(O)C1O)C2 [(2S)-Pteroside A2, (2S)-pteroside A2] | 1,010 ± 60 µM | >5,000 µM | >5,000 µM | >5,000 µM | 94.4 ± 4.5 | 39.3 ± 1.9 | 119 ± 2.5 | 0.54 ± 0.51 |  | 
Cc1c(CCO[C@@H]2O[C@H](CO)[C@@H](O)[C@H](O)[C@H]2O)c(CO)cc2c1C(=O)[C@@H](C)C2 [(2S)-Pteroside P, (2S)-pteroside P] | 1,090 ± 99 µM | >5,000 µM | >5,000 µM | >5,000 µM | > 125 | 57.5 ± 3.2 | 33.2 ± 3 |  | inactive at the concentrations tested | 
Cc1cc2c(c(C)c1CCO)C(=O)[C@](C)(CO)C2 [(2S)-Pterosin A, (2S)-pterosin A] | 1,210 ± 110 µM | >5,000 µM | >5,000 µM | 522 ± 25 µM | > 125 | 56.7 ± 2.6 | 67.3 ± 3.3 | 6.26 ± 0.24 | inactive at the concentrations tested | log Pe (in vitro; PAMPA-BBB): -5.20; BBB permeation class (in vitro; PAMPA-BBB, classified by Pe, given in words): high BBB permeation
